The results in this text go back to US6664400B2 (dated 2003).

The structures appear in SMILES notation.

A word on the melting point: it is the temperature, or range, at which the solid turns liquid. `O=C1[C@H]2C[C@H](F)CN2C(=O)N1c1cc(NS(=O)(=O)CCl)c(Cl)cc1F` displayed a melting point of 168 to 170 °C.
